# Laboratory results published in patent US4394503A, “Cephalosporin derivatives” (priority 1981, dated 1983).
# Like-named read-outs stand apart in the source and are kept apart here.
# Experiments:
# S. marcescens A20019 = experiment: MIC against selected test organisms (Table 2); type: cell-based; conditions: Serratia marcescens
# N. meningitidus = experiment: In vitro activity against species of Streptococcus, Neisseria and Haemophilus (Table 3); type: cell-based; conditions: read-out: Geometric Mean of MIC
# P. morganii A9553 = experiment: MIC against selected test organisms (Table 2); type: cell-based; conditions: Morganella morganii
# B. fragilis A22533 = experiment: MIC against selected test organisms (Table 2); type: cell-based; conditions: Bacteroides fragilis
# [1] = test system: Penicillin-resistant S. aureus (Gp-Ib); experiment: In vitro antibacterial activity, two-fold agar dilution, Mueller-Hinton agar (Table 1), group Gp-Ib; type: cell-based
# [2] = test system: Cephalothin-sensitive E. coli, Kl. pneumoniae and Pr. mirabilis (Gn-Ia); experiment: In vitro antibacterial activity, two-fold agar dilution, Mueller-Hinton agar (Table 1), group Gn-Ia; type: cell-based; conditions: read-out: Geometric Mean of MIC
# E. coli Juhl [3] = experiment: MIC against selected test organisms (Table 2); type: cell-based; conditions: Escherichia coli, read-out: Minimum Inhibitory Concentration
# in vivo = conditions: mouse, im
# Experimental: Blood samples were collected from the orbital sinuses into heparinized capillary tubes and assayed by the paper disc-agar diffusion method using E. coli as the test organism. The half-life values and areas under the curve were determined.
# N. gonorrhoeae = experiment: In vitro activity against species of Streptococcus, Neisseria and Haemophilus (Table 3); type: cell-based; conditions: Neisseria gonorrhoeae, read-out: Geometric Mean of MIC
# K. pneumoniae D11 = experiment: MIC against selected test organisms (Table 2); type: cell-based; conditions: Klebsiella pneumoniae
# S. aureus Smith = experiment: Therapeutic efficacy in experimentally infected mice (Table 5); type: in vivo; conditions: Staphylococcus aureus, im, 120 h; i.m., immediately after intraperitoneal challenge, 5 days observation; read-out: PD50 (median protective dose)
# Experimental: (§1) The test compounds were administered intramuscularly immediately after the bacterial challenge.
# E. cloacae A9656 = experiment: as above; type: in vivo; conditions: Enterobacter cloacae, A9656, im, 120 h; i.m., immediately after intraperitoneal challenge, 5 days observation; read-out: PD50 (median protective dose)
# Experimental: as §1
# P. aeruginosa A9843 [4] = experiment: as above; type: in vivo; conditions: Pseudomonas aeruginosa, A9843, im, 120 h; i.m., immediately after intraperitoneal challenge, 5 days observation; read-out: PD50 (median protective dose)
# Experimental: as §1
# S. aureus BX-1633 = experiment: as above; type: in vivo; conditions: Staphylococcus aureus, BX1633, im, 120 h; i.m., immediately after intraperitoneal challenge, 5 days observation; read-out: PD50 (median protective dose)
# Experimental: as §1
# E. coli Juhl [5] = experiment: as above; type: in vivo; conditions: Escherichia coli, im, 120 h; i.m., immediately after intraperitoneal challenge, 5 days observation; read-out: PD50 (median protective dose)
# Experimental: as §1
# Pr. mirabilis A9900 = experiment: as above; type: in vivo; conditions: Proteus mirabilis, A9900, im, 120 h; i.m., immediately after intraperitoneal challenge, 5 days observation; read-out: PD50 (median protective dose)
# Experimental: as §1
# S. pyrogenes = experiment: In vitro activity against species of Streptococcus, Neisseria and Haemophilus (Table 3); type: cell-based; conditions: read-out: Geometric Mean of MIC
# Ps. aeruginosa (Gn-III) = experiment: In vitro antibacterial activity, two-fold agar dilution, Mueller-Hinton agar (Table 1), group Gn-III; type: cell-based; conditions: Pseudomonas aeruginosa; read-out: Geometric Mean of MIC
# P. aeruginosa A9843 [6] = experiment: MIC against selected test organisms (Table 2); type: cell-based; conditions: Pseudomonas aeruginosa
# C. difficile A21675 = experiment: MIC against selected test organisms (Table 2); type: cell-based; conditions: Clostridioides difficile
# S. pneumoniae = experiment: In vitro activity against species of Streptococcus, Neisseria and Haemophilus (Table 3); type: cell-based; conditions: read-out: Geometric Mean of MIC
# B. fragilis A22693 = experiment: MIC against selected test organisms (Table 2); type: cell-based; conditions: Bacteroides fragilis, A22693, read-out: Minimum Inhibitory Concentration
# B. fragilis A21900 = experiment: MIC against selected test organisms (Table 2); type: cell-based; conditions: Bacteroides fragilis
# B. fragilis A22021 = experiment: MIC against selected test organisms (Table 2); type: cell-based; conditions: Bacteroides fragilis, A22021, read-out: Minimum Inhibitory Concentration
# C. perfringens A9635 = experiment: microbe, parasite or virus in culture; type: cell-based; conditions: Clostridium perfringens, A9635, read-out: Minimum Inhibitory Concentration
# E. coli A15148 = experiment: MIC against selected test organisms (Table 2); type: cell-based; conditions: Escherichia coli
# [7] = test system: Cephalothin-resistant E. coli and Kl. pneumoniae (Gn-Ib); experiment: In vitro antibacterial activity, two-fold agar dilution, Mueller-Hinton agar (Table 1), group Gn-Ib; type: cell-based, E. coli (3) and Kl. pneumoniae (3); conditions: Escherichia coli, read-out: Geometric Mean of MIC
# P. acnes A21933 = experiment: MIC against selected test organisms (Table 2); type: cell-based; conditions: Cutibacterium acnes
# H. influenzae(AMP-S) = experiment: In vitro activity against species of Streptococcus, Neisseria and Haemophilus (Table 3); type: cell-based; conditions: Haemophilus influenzae, read-out: Geometric Mean of MIC
smiles,measurement,setting,value
"CSc1cc[n+](CC2=C(C(=O)[O-])N3C(=O)C(NC(=O)/C(=N\OC(C)(C)C(=O)O)c4csc(N)n4)C3SC2)cc1 (stereo not shown) [Example 2, 7-[(Z)-2-(2-Aminothiazol-4-yl)-2-(2-carboxyprop-2-oxyimino)-acetamido]-3-[(4-methylthiopyridinium)methyl]-3-cephem-4-carboxylate]",MIC,"S. marcescens A20019; A20019, Gn-II, CET-R, read-out: Minimum Inhibitory Concentration",0.4 µg/mL
same,MIC,N. meningitidus; 5 strains,0.013 µg/mL
same,MIC,"P. morganii A9553; A9553, Gn-II, CET-R, read-out: Minimum Inhibitory Concentration",1.6 µg/mL
same,MIC,"B. fragilis A22533; A22533, Anaerobe, AMP-R, read-out: Minimum Inhibitory Concentration",> 100 µg/mL
same,MIC,[1]; Staphylococcus aureus; read-out: Geometric Mean of MIC,6.3 µg/mL
same,MIC,[2],0.066 µg/mL
same,MIC,"E. coli Juhl [3]; Gn-Ia, CET-S",0.1 µg/mL
same,AUC,in vivo; 10 mg/kg,3700 ng·h/mL
same,concentration at 10 min,in vivo; 10 mg/kg,4500 ng/mL
same,concentration at 20 min,in vivo; 10 mg/kg,5100 ng/mL
same,concentration at 0.5 h,in vivo; 10 mg/kg,3800 ng/mL
same,concentration at 40 min,in vivo; 10 mg/kg,3200 ng/mL
same,concentration at 1 h,in vivo; 10 mg/kg,1100 ng/mL
same,concentration at 1.5 h,in vivo; 10 mg/kg,450 ng/mL
same,half-life,in vivo; 10 mg/kg,18 min
same,AUC,in vivo; 20 mg/kg,10000 ng·h/mL
same,concentration at 10 min,in vivo; 20 mg/kg,12000 ng/mL
same,concentration at 20 min,in vivo; 20 mg/kg,12000 ng/mL
same,concentration at 0.5 h,in vivo; 20 mg/kg,9300 ng/mL
same,concentration at 40 min,in vivo; 20 mg/kg,8700 ng/mL
same,concentration at 1 h,in vivo; 20 mg/kg,4000 ng/mL
same,concentration at 1.5 h,in vivo; 20 mg/kg,1200 ng/mL
same,half-life,in vivo; 20 mg/kg,16 min
same,MIC,N. gonorrhoeae; 4 strains,0.013 µg/mL
same,MIC,"K. pneumoniae D11; D11, Gn-Ia, CET-S, read-out: Minimum Inhibitory Concentration",0.1 µg/mL
same,ED50,S. aureus Smith,5 mg/kg
same,ED50,E. cloacae A9656,3.5 mg/kg
same,ED50,P. aeruginosa A9843 [4],12 mg/kg
same,ED50,S. aureus BX-1633,15 mg/kg
same,ED50,E. coli Juhl [5],0.16 mg/kg
same,ED50,Pr. mirabilis A9900,0.63 mg/kg
same,MIC,S. pyrogenes,0.2 µg/mL
same,MIC,Ps. aeruginosa (Gn-III),3.1 µg/mL
same,MIC,"P. aeruginosa A9843 [6]; A9843, Gn-III, CET-R, read-out: Minimum Inhibitory Concentration",1.6 µg/mL
same,MIC,"C. difficile A21675; A21675, Anaerobe, CLDM-R, read-out: Minimum Inhibitory Concentration",> 100 µg/mL
same,MIC,S. pneumoniae; 5 strains,0.2 µg/mL
same,MIC,B. fragilis A22693,12.5 µg/mL
same,MIC,"B. fragilis A21900; A21900, Anaerobe, CET-S, read-out: Minimum Inhibitory Concentration",6.3 µg/mL
same,MIC,B. fragilis A22021,12.5 µg/mL
same,MIC,C. perfringens A9635,12.5 µg/mL
same,MIC,"E. coli A15148; A15148, Gn-Ib, CET-R, read-out: Minimum Inhibitory Concentration",0.2 µg/mL
same,MIC,[7],0.89 µg/mL
same,MIC,"P. acnes A21933; A21933, Anaerobe, CLDM-R, read-out: Minimum Inhibitory Concentration",1.6 µg/mL
same,MIC,"H. influenzae(AMP-S); AMP-S, 7 strains",0.1 µg/mL
"CC(C)(O/N=C(\C(=O)N[C@@H]1C(=O)N2C(C(=O)[O-])=C(C[n+]3ccccc3)CS[C@H]12)c1csc(N)n1)C(=O)O [Ceftazidime, ceftazidime, reference compound]",MIC,"S. marcescens A20019; A20019, read-out: Minimum Inhibitory Concentration",0.1 µg/mL
same,MIC,N. meningitidus,0.1 µg/mL
same,MIC,"P. morganii A9553; A9553, read-out: Minimum Inhibitory Concentration",3.1 µg/mL
same,MIC,"B. fragilis A22533; A22533, read-out: Minimum Inhibitory Concentration",> 100 µg/mL
same,MIC,"[1]; Staphylococcus aureus, read-out: Geometric Mean of MIC",12.5 µg/mL
same,MIC,[2],0.066 µg/mL
same,MIC,E. coli Juhl [3],0.1 µg/mL
same,AUC,in vivo; 10 mg/kg,5500 ng·h/mL
same,concentration at 10 min,in vivo; 10 mg/kg,8000 ng/mL
same,concentration at 20 min,in vivo; 10 mg/kg,7800 ng/mL
same,concentration at 0.5 h,in vivo; 10 mg/kg,5500 ng/mL
same,concentration at 40 min,in vivo; 10 mg/kg,3900 ng/mL
same,concentration at 1 h,in vivo; 10 mg/kg,1800 ng/mL
same,concentration at 1.5 h,in vivo; 10 mg/kg,400 ng/mL
same,half-life,in vivo; 10 mg/kg,16 min
same,AUC,in vivo; 20 mg/kg,10000 ng·h/mL
same,concentration at 10 min,in vivo; 20 mg/kg,18000 ng/mL
same,concentration at 20 min,in vivo; 20 mg/kg,14000 ng/mL
same,concentration at 0.5 h,in vivo; 20 mg/kg,11000 ng/mL
same,concentration at 40 min,in vivo; 20 mg/kg,7700 ng/mL
same,concentration at 1 h,in vivo; 20 mg/kg,2400 ng/mL
same,concentration at 1.5 h,in vivo; 20 mg/kg,610 ng/mL
same,half-life,in vivo; 20 mg/kg,14 min
same,MIC,N. gonorrhoeae,0.1 µg/mL
same,MIC,"K. pneumoniae D11; D11, read-out: Minimum Inhibitory Concentration",0.1 µg/mL
same,ED50,S. aureus Smith,10 mg/kg
same,ED50,E. cloacae A9656,3.5 mg/kg
same,ED50,P. aeruginosa A9843 [4],6 mg/kg
same,ED50,S. aureus BX-1633,15 mg/kg
same,ED50,E. coli Juhl [5],0.11 mg/kg
same,ED50,Pr. mirabilis A9900,0.9 mg/kg
same,MIC,S. pyrogenes,0.4 µg/mL
same,MIC,Ps. aeruginosa (Gn-III),2 µg/mL
same,MIC,"P. aeruginosa A9843 [6]; A9843, read-out: Minimum Inhibitory Concentration",1.6 µg/mL
same,MIC,"C. difficile A21675; A21675, read-out: Minimum Inhibitory Concentration",> 100 µg/mL
same,MIC,S. pneumoniae,0.4 µg/mL
same,MIC,B. fragilis A22693,12.5 µg/mL
same,MIC,"B. fragilis A21900; A21900, read-out: Minimum Inhibitory Concentration",25 µg/mL
same,MIC,B. fragilis A22021,12.5 µg/mL
same,MIC,C. perfringens A9635,6.3 µg/mL
same,MIC,"E. coli A15148; A15148, read-out: Minimum Inhibitory Concentration",0.4 µg/mL
same,MIC,[7],1.6 µg/mL
same,MIC,"P. acnes A21933; A21933, read-out: Minimum Inhibitory Concentration",1.6 µg/mL
same,MIC,H. influenzae(AMP-S),0.055 µg/mL
